Measured values as given in publication PMC12169663, “Deciphering the Tumor Uptake of Heterobivalent (SST2/Albumin) [^64Cu]Cu-NODAGA-cLAB-TATEs” (Journal of Medicinal Chemistry, 2025).
Where two headings read alike, the source gives them in different places.

Assays:
HSA [1] = molecular target: T1, HSA (Homo sapiens, UniProt P02768); test: Kd[HSA] from SST2 saturation binding in presence of HSA, nonlinear regression with model of Blakeley et al.
Source text: Blakeley et al. developed a mathematical model that includes radioligand, protein (herein HSA), and target receptor (herein SST2) to derive the K d[HSA] value of the radioligand from saturation binding experiments to the target receptor in the presence of HSA. The authors specified an explicit mathematical solution for their proposed cubic equation and provided this solution also in a practical format for GraphPad Prism, which allows the analysis of experimental data but also simulations.

[2] = set-up: method as in not given; conditions: previously characterized; ref not given; cited from earlier work
HSA [3] = molecular target: T1, HSA; test: Schild analysis of SST2 binding in the presence of HSA
Protocol: 5 Schild analysis of SST2 binding in the presence of HAS. […] Simulation was performed in GraphPad Prism (version 10.2.3) according to the solution in PRISM language provided by Blakeley et al. for their derived cubic equation. (B, C) Exemplary saturation binding curves of [^64Cu]-Cu-NODAGA-cLAB2-TATE (B) and [^64Cu]-Cu-NODAGA-TATE (C) to intact MPC cells in the presence of increasing concentrations of HSA. For each curve, data shown are mean values (±SD) of one experiment, which was performed in triplicate. […] This plot was analyzed by linear regression. The simulation data provide a slope of unity, while for [^64Cu]-Cu-NODAGA-cLAB2-TATE, a slope of 0.69 (CI of 95%: 0.48–0.90, R ^2 = 0.990) was obtained.
Analyzing the experimental data by nonlinear regression according to the model of Blakeley et al. with fixed values for [HSA], [SST2], and K d[SST2], provided the K d[HSA] values (Table ). […]
For Schild analysis, the ratio (similar to the agonist dose ratio, DR) between the apparent K d value in the presence of each HSA concentration and the K d value in the absence of HSA was calculated. Then, the logarithm of these DR minus 1 (log(DR-1)) was calculated and plotted against the log of the concentration of HSA. This plot was analyzed by linear regression with the x-intercept equals to the log(K d) value of the radioligand for HSA.

[4] = system: MPC tumor-bearing NMRI-nu/nu mice; set-up: method as in not given; conditions: previous study of the authors, ref not given, cited from earlier work
[5] = molecular target: human serum albumin (HSA) (Homo sapiens, UniProt P02768); test: Radiometric ultrafiltration assay for binding to HSA
Chain of human serum albumin (HSA) (P02768 25-609): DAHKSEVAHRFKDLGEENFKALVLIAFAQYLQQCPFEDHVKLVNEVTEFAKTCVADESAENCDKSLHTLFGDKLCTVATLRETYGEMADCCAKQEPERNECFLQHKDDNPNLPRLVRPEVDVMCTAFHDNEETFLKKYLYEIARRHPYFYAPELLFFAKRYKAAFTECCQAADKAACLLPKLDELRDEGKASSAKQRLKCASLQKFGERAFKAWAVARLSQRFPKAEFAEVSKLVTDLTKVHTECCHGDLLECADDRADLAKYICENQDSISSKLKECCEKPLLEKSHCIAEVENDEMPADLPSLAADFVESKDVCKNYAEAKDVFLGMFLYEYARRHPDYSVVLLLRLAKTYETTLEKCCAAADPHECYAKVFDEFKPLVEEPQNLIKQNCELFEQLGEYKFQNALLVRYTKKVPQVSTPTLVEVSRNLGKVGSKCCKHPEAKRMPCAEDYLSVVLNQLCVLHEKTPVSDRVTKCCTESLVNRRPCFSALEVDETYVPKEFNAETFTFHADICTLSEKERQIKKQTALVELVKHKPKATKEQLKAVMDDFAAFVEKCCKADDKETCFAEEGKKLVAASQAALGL
Protocol: The ultrafiltration assay used to quantify the binding of the ^64Cu-labeled peptides to HSA was performed as previously described for NODAGA-cLAB-TATEs. , Briefly, a constant activity amount of the radioligands (10–15 MBq) were mixed with different HSA concentrations (200 nM–1.4 mM). Aliquots were loaded into the ultrafiltration devices (4104 centrifugal filter units by Millipore; 30 000 Da nominal molecular weight limit, methylcellulose micropartition membranes) and centrifuged. After centrifugation, aliquots from the top and bottom fractions were measured in a γ-counter (PerkinElmer, Wizard^2 2480 automatic gamma counter). The retained fraction was calculated as a quotient of these measurements. The dissociation constant, K d, was calculated using the Morrison equation.

[6] = Plasma stability assay, mouse plasma; type: in vitro ADME
Source text: Previously, we discovered that the ^64Cu-labeled NODAGA-cLAB-TATEs with a primary amide functionality within the albumin-binding moiety are subject to a metabolic transformation in mouse plasma. In fact, the primary amide is slowly hydrolyzed to the carboxylic acid, which turned out to be catalyzed by plasma carboxylesterases as proven by blocking this transformation in the presence of bis-para-nitrophenylphosphate. […] As this transformation entails also an increase in the binding affinity to albumin, there might be effects on the biodistribution in mice, in particular the blood circulation time. To investigate this, NODAGA-cLAB6-TATE was designed, with cLAB6 (N3Bz-D-Lys(MPB)-NH2) representing the D-configured pendant of cLAB4 (N3Bz-L-Lys(MPB)-NH2). […] However, the apparent half-lives for both compounds (≈13 and >24 h) are longer compared to the half-lives previously determined for [ ^ 64 Cu]-Cu-NODAGA-cLAB3-TATE and [ ^ 64 Cu]-Cu-NODAGA-cLAB4-TATE (≈6 and ≈3 h, respectively). For better comparability, the stability of [ ^ 64 Cu]-Cu-NODAGA-cLAB4-TATE was again examined with the same mouse plasma batch used for [ ^ 64 Cu]-Cu-NODAGA-cLAB5-TATE and [ ^ 64 Cu]-Cu-NODAGA-cLAB4- scr TATE. […] Therefore, the discrepancy with our previously reported stability data in mouse plasma might result from differences in the activity of plasma carboxylesterases in the obtained mouse plasma. However, the rate of amide hydrolysis is indeed lower for [ ^ 64 Cu]-Cu-NODAGA-cLAB4- scr TATE, independent of the mouse plasma batch, which might indicate that the actual amino acid sequence in these peptides affects the recognition by the plasma carboxylesterases.
2 Stability of the ^64Cu-labeled TATE derivatives in mouse plasma. (A) Radio-HPLC chromatograms of [^64Cu]-Cu-NODAGA-cLAB5-TATE (red), [^64Cu]-Cu-NODAGA-cLAB6-TATE (green), and [^64Cu]-Cu-NODAGA-cLAB- scr TATE (blue) after ^64Cu-labeling and incubation in mouse plasma for 24 h show the transformation of [^64Cu]-Cu-NODAGA-cLAB5-TATE and [^64Cu]-Cu-NODAGA-cLAB4- scr TATE into a metabolite of higher retention time (see the Discussion for explanation). (B) Plot of residual intact radioligands upon incubation with mouse plasma including nonlinear regression (black line) according to one-phase decay for [^64Cu]-Cu-NODAGA-cLAB5-TATE (red circles). The dotted lines represent fractions of 0.5 and 0.9. Data shown are mean values (±SD) from 1 to 3 experiments (each experiment was performed in single execution). […]
(§1) Plasma stability of the radioligands was done as previously described for NODAGA-cLAB-TATE and NODAGA-NES-TATEs. , Briefly, an aliquot of the radioligand was added to plasma and stability was assessed at different time points by withdrawing an aliquot, followed by protein precipitation and analysis by radio-HPLC.

[7] = Plasma stability assay, human plasma; type: in vitro ADME; conditions: 37 °C, up to 24 h, single experiment, read-out: t1/2 (plasma), human
Source text: Previously, we discovered that the ^64Cu-labeled NODAGA-cLAB-TATEs with a primary amide functionality within the albumin-binding moiety are subject to a metabolic transformation in mouse plasma. In fact, the primary amide is slowly hydrolyzed to the carboxylic acid, which turned out to be catalyzed by plasma carboxylesterases as proven by blocking this transformation in the presence of bis-para-nitrophenylphosphate. […] As this transformation entails also an increase in the binding affinity to albumin, there might be effects on the biodistribution in mice, in particular the blood circulation time. To investigate this, NODAGA-cLAB6-TATE was designed, with cLAB6 (N3Bz-D-Lys(MPB)-NH2) representing the D-configured pendant of cLAB4 (N3Bz-L-Lys(MPB)-NH2). […] However, the apparent half-lives for both compounds (≈13 and >24 h) are longer compared to the half-lives previously determined for [ ^ 64 Cu]-Cu-NODAGA-cLAB3-TATE and [ ^ 64 Cu]-Cu-NODAGA-cLAB4-TATE (≈6 and ≈3 h, respectively). […]
as §1

MPC cells = test: Cell binding and uptake (internalization) in MPC cells; type: cell-based, mouse
Protocol: Furthermore, the receptor-mediated endocytosis (referred to as internalization) of the novel compounds was assessed. The values for the internalized fraction (or “acid wash” resistant fraction) were >50% (Figure S5), which might indicate a similar pharmacological behavior of these ligands upon binding to SST2 as the parent ligand TATE.
Cell binding and uptake were measured as previously described. , MPC cells were seeded into collagen-coated 24-well microplates and cultivated for 4 days. All washing steps were performed using PBS containing 0.9 mM CaCl2 and 0.5 mM MgCl2. Total radioligand uptake was measured after incubation with the radioligand (A m = 30 GBq/μmol) at a final concentration of 20 nM in RPMI 1640 medium with GlutaMAX supplement (Thermo Fisher Scientific) for 1 h at 37 and 4 °C. Nonspecific binding was determined in the presence of 20 μM Acetyl-TATE. The uptake fraction was measured after acid wash of cell surface-bound radioligand with wash buffer containing 0.05 M glycine, pH 2.8, for 5 min. The activity of cell homogenates was measured using the γ counter Wizard (PerkinElmer). The protein content of cell homogenates was measured as described above.
Figure S5: Cell binding data
Data shown in A and B are mean values (±SD) of one experiment (NODAGA-cLAB(5/6)- TATE and NODAGA-cLAB4-scrTATE) or 3 experiments (±SEM, DOTA-EB-TATE), which were performed in sextuplicate. In C, the amount of specific “internalized” (acid resistant) radioligand (red bars in A, mean values) is expressed as percentage of specific total -bound radioligand (blue bars in A, mean values). The difference to 100% was assigned to “surface - bound” radioligand. For a better overview, the compound names were abbreviated. […]
specific binding of radioligand
Incubation at 37°C for 1 h
(% dose/mg of protein) Washing with
Incubation at 4°C for 1 h […]
(1 picture or pasted object on this page, not shown here)

[8] = n-Octanol/PBS distribution coefficient (log D7.4)
Protocol: The log D7.4 values of the ^64Cu-labeled peptides were determined with the octanol partitioning method.
The determination of the log D7.4 value was done in triplicate as previously described. , Briefly, a sample of the radioligand was added to the 1:1 mixture of PBS/n-octanol. The radioactivity in a defined volume of each layer was measured (ISOMED 2100). The distribution coefficient was expressed as the logarithm of the ratio of counts per minute (cpm) measured in the n-octanol phase to the cpm measured in the PBS phase.

[9] = Small-animal PET imaging in subcutaneous MPC tumor allograft model; conditions: female, NMRI-nu/nu (Rj:NMRI-Foxn1nu/nu), mouse, tumor, iv, total radioactivity
Protocol: (§2) The biodistribution of [ ^ 64 Cu]­Cu-NODAGA-cLAB­(5/6)-TATE, [ ^ 64 Cu]­Cu-NODAGA-cLAB4- scr TATE, and [ ^ 64 Cu]­Cu-DOTA-EB-TATE was assessed in a subcutaneous MPC tumor allograft model via small-animal PET imaging (Figure A–D). The time-activity curves (TACs) for tumor, kidneys, and heart are shown in Figure A–D (for TACs of muscle and liver, see Figure S6) and the calculated areas under curves (AUC0–48h) and tumor-to-tissue ratios are graphically summarized in Figure E,F, respectively.
(§3) (A–D) Time-activity curves (SUV, decay-corrected, as a function of time up to 48 h) obtained by PET acquisition are depicted (0–2 h in dynamic mode and time points 5, 24, and 48 h p.i.; the x-axes are segmented accordingly). Data shown are mean values (±SD) of a group of MPC tumor-bearing NMRI-nu/nu mice (n = 2, but for cLAB6-TATE n = 4). […] (E) Calculated AUC0–48h values. Data shown are mean values (±SD). (F) Tumor/organ ratios based in the AUC0–48h values.
(§4) A number of 4 × 10^6 MPC cells were resuspended in 40 μL of Dulbecco’s phosphate-buffered saline and injected subcutaneously into the shoulder of 7–10-week-old female nude mice (Rj:NMRI-Foxn1^nu/nu, Janvier Laboratories, Le Genest-Saint-Isle, France). General anesthesia was induced and maintained with inhalation of 10% (v/v) desflurane in 30% oxygen/air (v/v). Tumor growth was monitored using caliper measurements. Animals were sacrificed using CO2 inhalation and cervical dislocation. When diameters of MPC tumors reached 8 ± 3 mm (volumes of 65–282 mm^3), small-animal positron emission tomography (PET) was performed using the nanoScan PET/CT (Mediso Medical Imaging Systems, Budapest, Hungary) and Si78 PET/CT (BRUKER, Billerica, MA) instruments. Scanners were cross-calibrated using a syringe source containing 10 MBq of [^64Cu]­CuCl2 diluted in 2 mL of 0.01 M HCl. Each mouse (n = 2) received between 7 and 10 MBq of the respective radioligand (A m = 40 GBq/μmoL) delivered in 0.154 M NaCl via intravenous injection through a tail vein catheter within the initial 30 s after scan start. […] Standardized uptake values (SUV = [MBq detected activity/mL tissue]/[MBq injected activity/g body weight]) were determined in defined volumes of interest (VOIs) and reported as VOI-averaged SUVmean ± range [min–max]. Assuming a density of 1 g/mL for body tissues, the SUVs become dimensionless.

[10] = system: MPC tumor-bearing NMRI-nu/nu mice; test: as above; conditions: PET, i.v., 7–10 MBq/animal
Protocol: as §2, §3, §4

[11] = 1–100 μM HSA, read-out: Kd[HSA] derived from saturation binding, range over the HSA concentrations
[12] = [HSA] 20 μM, read-out: Kd[HSA] derived from saturation binding
[13] = [HSA] 40 μM, read-out: Kd[HSA] derived from saturation binding
[14] = [HSA] 100 μM, read-out: Kd[HSA] derived from saturation binding

T1 sequence (P02768 25-609): as above

SMILES: C[C@@H](O)[C@H](NC(=O)[C@@H]1CSSC[C@H](NC(=O)[C@@H](Cc2ccccc2)NC(=O)CC[C@H](C(=O)O)N2CCN(CC(=O)O)CCN(CC(=O)O)CC2)C(=O)N[C@@H](Cc2ccc(O)cc2)C(=O)N[C@H](Cc2c[nH]c3ccccc23)C(=O)N[C@@H](CCCCN)C(=O)N[C@@H]([C@@H](C)O)C(=O)N1)C(=O)O [[64Cu]Cu-NODAGA-TATE, metal not drawn]
- Kd (HSA [1]; [11]): 3.9 to 108 µM
- Kd (HSA [1]; [HSA] 1 μM, read-out: Kd[HSA] derived from saturation binding): 5.63 µM
- Kd (HSA [1]; [HSA] 5 μM, read-out: Kd[HSA] derived from saturation binding): 4.02 µM
- Kd (HSA [1]; [12]): 3.89 µM
- Kd (HSA [1]; [13]): 16.7 µM
- Kd (HSA [1]; [14]): 108 µM
- log D7.4 [2]: −3.43

SMILES: C[C@@H](O)[C@H](NC(=O)[C@@H]1CSSC[C@H](NC(=O)[C@@H](Cc2ccccc2)NC(=O)COCCOCCNC(=O)[C@H](Cc2cn(-c3ccc(C(=O)N[C@@H](CCCCNC(=O)CCCc4ccc(I)cc4)C(=O)O)cc3)nn2)NC(=O)CC[C@H](C(=O)O)N2CCN(CC(=O)O)CCN(CC(=O)O)CC2)C(=O)N[C@@H](Cc2ccc(O)cc2)C(=O)N[C@H](Cc2c[nH]c3ccccc23)C(=O)N[C@@H](CCCCN)C(=O)N[C@@H]([C@@H](C)O)C(=O)N1)C(=O)O [[64Cu]Cu-NODAGA-cLAB2-TATE, metal not drawn]
- Kd (HSA [1]; [11]): 2.6 to 6.1 µM
- Kd (HSA [1]; [12]): 3.06 µM
- Kd (HSA [1]; [13]): 2.59 µM
- Kd (HSA [1]; [14]): 6.12 µM
- slope of Schild plot (HSA [3]; linear regression, CI of 95%: 0.48–0.90): 0.69
- Kd (HSA [3]; x-intercept of Schild plot, 5–100 μM HSA): 1800 nM
- tumor SUVmean ([4]; 24 h p.i.): 3.1
- tumor SUVmean ([4]; 48 h p.i.): 2.4
- AUC0–48h[tumor] ([4]; same MPC model): 123 SUVmean*h
- fu ([5]; 1 μM HSA, fu=Kd/(Bmax+Kd)): 0.64
- fu ([5]; 5 μM HSA): 0.26
- fu ([5]; 20 μM HSA): 0.08
- fu ([5]; 40 μM HSA): 0.04
- fu ([5]; 100 μM HSA): 0.02

SMILES: C[C@@H](O)[C@H](NC(=O)[C@@H]1CSSC[C@H](NC(=O)[C@@H](Cc2ccccc2)NC(=O)COCCOCCNC(=O)[C@H](Cc2cn(-c3ccc(C(=O)N[C@@H](CCCCNC(=O)CCCc4ccc(F)cc4)C(N)=O)cc3)nn2)NC(=O)CC[C@H](C(=O)O)N2CCN(CC(=O)O)CCN(CC(=O)O)CC2)C(=O)N[C@@H](Cc2ccc(O)cc2)C(=O)N[C@H](Cc2c[nH]c3ccccc23)C(=O)N[C@@H](CCCCN)C(=O)N[C@@H]([C@@H](C)O)C(=O)N1)C(=O)O [[64Cu]Cu-NODAGA-cLAB5-TATE, metal not drawn]
- half-life ([6]; 37 °C, up to 24 h, single experiment, read-out: t1/2 (plasma), mouse): ~780 min
- hydrolysis of the primary amide in mouse plasma ([6]; 24 h, radio-HPLC): hydrolyzed
- half-life [7]: > 1440 min
- specific binding of radioligand (MPC cells; incubation at 4 °C for 1 h, washing with PBS pH 7.4, 20 nM): 0.94 % dose/mg of protein
- specific binding of radioligand (MPC cells; incubation at 4 °C for 1 h, washing with glycine buffer pH 2.8, 20 nM): 0.30 % dose/mg of protein
- specific binding of radioligand (MPC cells; incubation at 37 °C for 1 h, washing with PBS pH 7.4 (total bound), 20 nM): 5.74 %dose/mg of protein
- specific binding of radioligand (MPC cells; incubation at 37 °C for 1 h, washing with glycine buffer pH 2.8 (acid resistant), 20 nM): 3.34 %dose/mg of protein
- logD [8]: -2.27
- Kd [5]: 440 µM
- SUV [9]: 8.9 SUV
- SUV at 2 h [9]: 7.9 SUV
- SUV at 4 h [9]: 4.9 SUV
- SUV at 24 h [9]: 2.3 SUV
- AUC0-48h heart [10]: 5.98 SUVmean*h
- AUC0-48h kidney [10]: 32.36 SUVmean*h
- AUC0-48h liver [10]: 22.25 SUVmean*h
- AUC0-48h tumor [10]: 148 SUVmean*h
- AUC0-48h tumor ([10]; listed as cLAB5): 148.10 SUVmean*h
